The values below are quoted from earlier work in patent publication US7851424B2, “Antimicrobial hand wash” (GOJO Industries, Inc., priority 2006, dated 2010).

Each structure is given as a SMILES string.

Consider `Oc1cc(Cl)ccc1Oc1ccc(Cl)cc1Cl` [Triclosan, 2,4,4′-trichloro-2′hydroxy-diphenylether], for which the pKa is given as 7.4.
